Results from patent US20060062865A1, “Tyrosinase inhibitor and method for preparation” (priority 2004, published 2006).

Tested on: mushroom tyrosinase
Experiment: Mushroom tyrosinase in vitro enzyme assay (absorbance at 492 nm)
Type: biochemical
Details: in vitro tyrosinase (mushroom) enzyme activity
Procedure: Enzyme assay. The mushroom tyrosinase was used for the bioassay. It was purchased from Sigma Chemical Co. (St. Louis, Mo.). The assay was performed by adding 200 microliters of reaction cocktail (mixture of potassium phosphate buffer 50 mM, pH 6.5, 10 ml; 1 mM tyrosine solution, 10 ml and deionized water, 9 ml) and 10 microliters of tested extract dissolved in ethanol at concentration of 1 mg/ml followed by 10 microliters of tyrosinase (1000 units/ml) to 96-well plate. After 2 min incubation at room temperature, the initial absorbance was read at 492 nm on the plate reader. Final absorbance values were read after 10 minutes. The enzyme activity was calculated from the differential values for absorbance and then converted into inhibitory activity. Kojic acid was used as standard at a concentration of 1 mg/ml dissolved in 95% ethanol.

O=c1cc(CO)occ1O [Kojic acid]
Inhibition at 1 mg/ml (sample 1 mg/ml in ethanol, tyrosine substrate, Table 1 experiment): 88%
Inhibition at 1 mg/ml (sample 1 mg/ml, extracts of different plant parts, Table 2 experiment): 86%
